For orientation: IC50 means the concentration that gives 50% inhibition.

We go through 18 compounds from patent publication US8415340B2, “Triazine kinase inhibitors” (Bristol-Myers Squibb Company, priority 2007, dated 2013).

Sequence of IGF1-receptor (P08069 31-1367): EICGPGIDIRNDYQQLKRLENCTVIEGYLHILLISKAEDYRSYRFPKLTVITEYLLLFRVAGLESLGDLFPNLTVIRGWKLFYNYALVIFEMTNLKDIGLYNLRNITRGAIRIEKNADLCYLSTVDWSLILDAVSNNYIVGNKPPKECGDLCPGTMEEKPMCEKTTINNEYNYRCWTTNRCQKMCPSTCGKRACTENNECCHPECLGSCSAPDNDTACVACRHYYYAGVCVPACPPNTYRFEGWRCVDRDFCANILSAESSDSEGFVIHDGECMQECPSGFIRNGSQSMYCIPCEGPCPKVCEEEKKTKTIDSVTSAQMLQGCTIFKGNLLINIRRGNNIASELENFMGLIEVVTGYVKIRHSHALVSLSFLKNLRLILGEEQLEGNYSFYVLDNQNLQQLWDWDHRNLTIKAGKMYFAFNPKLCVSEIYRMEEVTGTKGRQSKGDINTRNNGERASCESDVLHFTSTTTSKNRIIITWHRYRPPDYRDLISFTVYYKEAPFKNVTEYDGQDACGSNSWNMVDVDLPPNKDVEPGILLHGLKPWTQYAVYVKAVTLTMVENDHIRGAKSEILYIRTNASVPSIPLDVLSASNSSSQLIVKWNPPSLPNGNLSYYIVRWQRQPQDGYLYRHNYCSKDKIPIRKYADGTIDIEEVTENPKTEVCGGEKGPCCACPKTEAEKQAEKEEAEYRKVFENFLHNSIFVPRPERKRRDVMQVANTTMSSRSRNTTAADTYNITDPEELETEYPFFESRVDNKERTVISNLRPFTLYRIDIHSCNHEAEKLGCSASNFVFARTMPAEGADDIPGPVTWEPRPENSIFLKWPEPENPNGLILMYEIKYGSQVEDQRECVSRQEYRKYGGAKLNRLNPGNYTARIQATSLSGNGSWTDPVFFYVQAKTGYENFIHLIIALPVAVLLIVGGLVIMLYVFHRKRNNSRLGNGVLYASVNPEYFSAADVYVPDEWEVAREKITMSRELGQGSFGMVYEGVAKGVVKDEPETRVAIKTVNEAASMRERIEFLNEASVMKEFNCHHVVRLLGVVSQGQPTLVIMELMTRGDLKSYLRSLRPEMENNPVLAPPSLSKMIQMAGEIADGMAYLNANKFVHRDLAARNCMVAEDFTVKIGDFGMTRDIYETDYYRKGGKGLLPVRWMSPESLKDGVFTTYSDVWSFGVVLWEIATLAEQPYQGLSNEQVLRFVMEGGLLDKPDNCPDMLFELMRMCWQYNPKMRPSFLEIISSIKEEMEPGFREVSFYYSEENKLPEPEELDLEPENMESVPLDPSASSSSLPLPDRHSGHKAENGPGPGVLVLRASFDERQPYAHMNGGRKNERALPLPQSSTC

The assay has as its target IGF1-receptor (Homo sapiens, UniProt P08069). Kind of assay: IGF1-Receptor Tyrosine Kinase Assay. Format: biochemical. The conditions noted are these: in vitro kinase; ATP 25 μM; read-out: IGF1R kinase IC50. As to the method: D. IGF1-Receptor Tyrosine Kinase Assay
The assays were performed in U-bottom 384-well plates. The final assay volume was 30 μl prepared from 15 μl additions of enzyme and substrates (fluoresceinated IGF1R substrate peptide and ATP) and test compounds in assay buffer (100 mM HEPES pH 7.4, 10 mM MnCl2, 0.015% Brij35 and 4 mM DTT). The reaction was initiated by the combination of IGF1-receptor with substrates and test compounds. The reaction was incubated at room temperature for 60 min. and terminated by adding 30 μl of 35 mM EDTA to each sample. The reaction mixture was analyzed on the Caliper LabChip 3000 by electrophoretic separation of the fluorescent substrate and phosphorylated product. Inhibition data were calculated by comparison to no enzyme control reactions for 100% inhibition and vehicle-only reactions for 0% inhibition. The final concentration of reagents in the assays is ATP, 25 μM; FL-peptide, 1.5 μM; IGF1-Receptor, 14 nM; and DMSO, 1.6%. Dose response curves were generated to determine the concentration required inhibiting 50% of kinase activity (IC50). Compounds were dissolved at 10 mM in dimethylsulfoxide (DMSO) and evaluated at eleven concentrations, each in duplicate. IC50 values were derived by non-linear regression analysis.
For `COc1nc(Nc2cc(C3CC3)[nH]n2)nc(N2C[C@@H](OC)C[C@H]2C(=O)Nc2cnccn2)n1` [Example 20, (2S,4S)-1-(4-(5-Cyclopropyl-1H-pyrazol-3-ylamino)-6-methoxy-1,3,5-triazin-2-yl)-4-methoxy-N-(pyrazin-2-yl)pyrrolidine-2-carboxamide], the half-inhibitory concentration (IC50) came to 7 nM.

For `O=C(N[C@H]1CCCN(c2nc(Nc3cc(C4CC4)n[nH]3)nc(N3C[C@H](F)C[C@H]3C(=O)Nc3cnccn3)n2)C1)C1CC1` [Example 72, (2S,4R)-1-(4-((S)-3-(Cyclopropanecarboxamido)piperidin-1-yl)-6-(3-cyclopropyl-1H-pyrazol-5-ylamino)-1,3,5-triazin-2-yl)-4-fluoro-N-(pyrazin-2-yl)pyrrolidine-2-carboxamide], the IC50 was 56 nM. `CN1CCN(c2nc(Nc3cc(C4CC4)n[nH]3)nc(N3[C@H](C(=O)Nc4cnccn4)C[C@@H]4C[C@@H]43)n2)CC1` [Example 122, (1S,3S,5S)-2-(4-(3-Cyclopropyl-1H-pyrazol-5-ylamino)-6-(4-methylpiperazin-1-yl)-1,3,5-triazin-2-yl)-N-(pyrazin-2-yl)-2-azabicyclo[3.1.0]hexane-3-carboxamide]: the IC50 was determined as 7 nM. Regarding `O=C(Nc1cnccn1)[C@@H]1CC(F)(F)CN1c1nc(Nc2cc(C3CC3)n[nH]2)nc(N2CCN(CCO)CC2)n1` [Example 119, (S)-1-(4-(3-Cyclopropyl-1H-pyrazol-5-ylamino)-6-(4-(2-hydroxyethyl)piperazin-1-yl)-1,3,5-triazin-2-yl)-4,4-difluoro-N-(pyrazin-2-yl)pyrrolidine-2-carboxamide], the IC50 is 3 nM.

As for `Cc1cnc(NC(=O)[C@]2(C)C[C@H](O)CN2c2nc(Nc3cc(C4CC4)[nH]n3)nc(N3CCOCC3)n2)s1` [Example 105, (2S,4S)-1-(4-(5-Cyclopropyl-1H-pyrazol-3-ylamino)-6-morpholino-1,3,5-triazin-2-yl)-4-hydroxy-2-methyl-N-(5-methylthiazol-2-yl)pyrrolidine-2-carboxamide], the IC50 worked out at 89 nM.

With `COCCN1CCN(c2nc(Nc3cc(C4CC4)[nH]n3)nc(N3C[C@@H](O)C[C@@]3(C)C(=O)Nc3nccs3)n2)CC1` [Example 103, (2S,4S)-1-(4-(5-Cyclopropyl-1H-pyrazol-3-ylamino)-6-(4-(2-methoxyethyl)piperazin-1-yl)-1,3,5-triazin-2-yl)-4-hydroxy-2-methyl-N-(thiazol-2-yl)pyrrolidine-2-carboxamide], the IC50 was 108 nM.

For `CN1CCN(c2nc(Nc3cc(C4CC4)[nH]n3)nc(N3C[C@@H](O)C[C@@]3(C)C(=O)Nc3nccs3)n2)CC1` [Example 102, (2S,4S)-1-(4-(5-Cyclopropyl-1H-pyrazol-3-ylamino)-6-(4-methylpiperazin-1-yl)-1,3,5-triazin-2-yl)-4-hydroxy-2-methyl-N-(thiazol-2-yl)pyrrolidine-2-carboxamide], the concentration for half-maximal inhibition (IC50) is 44 nM. Regarding `CO[C@H]1C[C@@H](C(=O)Nc2cnccn2)N(c2nc(Nc3cc(C4CC4)[nH]n3)nc(-n3nc(C4CC4)cc3N)n2)C1` [Example 58, (2S,4S)-1-(4-(5-Amino-3-cyclopropyl-1H-pyrazol-1-yl)-6-(5-cyclopropyl-1H-pyrazol-3-ylamino)-1,3,5-triazin-2-yl)-4-methoxy-N-(pyrazin-2-yl)pyrrolidine-2-carboxamide], the IC50 came to 95 nM.

`CN1CC2CC1CN2c1nc(Nc2cc(C3CC3)[nH]n2)nc(N2C[C@@H](O)C[C@@]2(C)C(=O)Nc2nccs2)n1` (stereo partly drawn) [Example 104, (2S,4S)-1-(4-(5-Cyclopropyl-1H-pyrazol-3-ylamino)-6-(5-methyl-2,5-diazabicyclo[2.2.1]heptan-2-yl)-1,3,5-triazin-2-yl)-4-hydroxy-2-methyl-N-(thiazol-2-yl)pyrrolidine-2-carboxamide]: the IC50 is 43 nM. Under `COCCN1CCN(c2nc(Nc3cc(C4CC4)n[nH]3)nc(N3C[C@@H](O)C[C@H]3C(=O)Nc3cnccn3)n2)CC1` [Example 87, (2S,4S)-1-(4-(3-Cyclopropyl-1H-pyrazol-5-ylamino)-6-(4-(2-methoxyethyl)piperazin-1-yl)-1,3,5-triazin-2-yl)-4-hydroxy-N-(pyrazin-2-yl)pyrrolidine-2-carboxamide] stands 2 nM; under `CO[C@H]1C[C@@H](C(=O)Nc2cnccn2)N(c2nc(Nc3cc(C4CC4)[nH]n3)nc(N3CCSCC3)n2)C1` [Example 34, (2S,4S)-1-(4-(5-Cyclopropyl-1H-pyrazol-3-ylamino)-6-thiomorpholino-1,3,5-triazin-2-yl)-4-methoxy-N-(pyrazin-2-yl)pyrrolidine-2-carboxamide], 3 nM. Under `CN1CCN(c2nc(Nc3cc(C4CC4)n[nH]3)nc(N3CC(F)(F)C[C@H]3C(=O)Nc3cnccn3)n2)CC1` [Example 117, (S)-1-(4-(3-Cyclopropyl-1H-pyrazol-5-ylamino)-6-(4-methylpiperazin-1-yl)-1,3,5-triazin-2-yl)-4,4-difluoro-N-(pyrazin-2-yl)pyrrolidine-2-carboxamide] stands 7 nM; under `O=C(Nc1ncns1)[C@@H]1C[C@@H](F)CN1c1nc(Nc2cc(C3CC3)n[nH]2)nc(N2CCOCC2)n1` [Example 82, (2S,4R)-1-(4-(3-Cyclopropyl-1H-pyrazol-5-ylamino)-6-morpholino-1,3,5-triazin-2-yl)-4-fluoro-N-(1,2,4-thiadiazol-5-yl)pyrrolidine-2-carboxamide], 7 nM. Under `CO[C@H]1C[C@@H](C(=O)Nc2cnccn2)N(c2nc(Nc3cc(C4CC4)n[nH]3)nc(N3CCN(S(C)(=O)=O)CC3)n2)C1` [Example 46, (2S,4S)-1-(4-(3-Cyclopropyl-1H-pyrazol-5-ylamino)-6-(4-(methylsulfonyl)piperazin-1-yl)-1,3,5-triazin-2-yl)-4-methoxy-N-(pyrazin-2-yl)pyrrolidine-2-carboxamide] stands 3 nM; under `CO[C@H]1C[C@@H](C(=O)Nc2cnccn2)N(c2nc(NCCN(C)C)nc(Nc3cc(C4CC4)n[nH]3)n2)C1` [Example 27, (2S,4S)-1-(4-(3-Cyclopropyl-1H-pyrazol-5-ylamino)-6-(2-(dimethylamino)ethylamino)-1,3,5-triazin-2-yl)-4-methoxy-N-(pyrazin-2-yl)pyrrolidine-2-carboxamide], 7 nM. With `CO[C@H]1C[C@@H](C(=O)Nc2ccc(F)nc2)N(c2nc(Nc3cc(C4CC4)n[nH]3)nc(N3CCOCC3)n2)C1` [Example 62, (2S,4S)-1-(4-(3-Cyclopropyl-1H-pyrazol-5-ylamino)-6-morpholino-1,3,5-triazin-2-yl)-N-(6-fluoropyridin-3-yl)-4-methoxypyrrolidine-2-carboxamide], the IC50 was found to be 2 nM. To `CO[C@H]1C[C@@H](C(=O)N[C@@H]2CCCN(C)C2)N(c2nc(Nc3cc(C4CC4)[nH]n3)nc(N3CCOCC3)n2)C1` [Example 113, (2S,4S)-1-(4-(5-Cyclopropyl-1H-pyrazol-3-ylamino)-6-morpholino-1,3,5-triazin-2-yl)-4-methoxy-N—((R)-1-methylpiperidin-3-yl)pyrrolidine-2-carboxamide] belongs 7 nM.

Regarding `COCCN1CCN(c2nc(Nc3cc(C4CC4)n[nH]3)nc(N3C[C@@H](OC)C[C@H]3C(=O)Nc3cnccn3)n2)CC1` [Example 25, (2S,4S)-1-(4-(3-Cyclopropyl-1H-pyrazol-5-ylamino)-6-(4-(2-methoxyethyl)piperazin-1-yl)-1,3,5-triazin-2-yl)-4-methoxy-N-(pyrazin-2-yl)pyrrolidine-2-carboxamide], the IC50 turned out to be 3 nM.
